Values quoted from earlier work in US20090291104A1 (Florida Atlantic University, priority 2005, published 2009).

System: K+ channels
Conditions: cited from earlier work

N--DPCYEVCLQHTGNV-KACEEACQ (NDPCYEVCLQHTGNVKACEEACQ; Opisthacanthus madagascarienses) [OmTx3]
rank as K+ channel blocker within the Om-toxin set: best blocker of the Om-toxin set
